# Experiments:
# Assay in all cases: competitive isoTOP-ABPP
# Type in all cases: binding
# Settings in all cases: 50 uM, in vitro, sol, 231
# [1] = biological target: T1, NAA25 N-alpha-acetyltransferase 25, NatB auxiliary subunit (Homo sapiens, UniProt Q14CX7)
# T1 construct: isoTOP-ABPP experiments performed in cell lysates (in vitro); endogenous in cells; host or cells: soluble proteome of human cancer cell lines (MDA-MB-231; Ramos and Jurkat also prepared)
# Procedure, shortened: (§1)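 Probe: STP-alkyne, 0.1 mM, 1 h RT, after fragment pretreatment of lysate (esters 50 μM; guanidinylators 100 μM). Tags: light = compound, heavy = DMSO, via CuAAC. Replicates averaged if SD <60% of mean; otherwise lowest ratio used when any R <4.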
# [2] = biological target: T2, LMNA Prelamin-A/C (Homo sapiens, UniProt P02545)
# T2 construct: isoTOP-ABPP experiments performed in cell lysates (in vitro); endogenous in cells; host or cells: MDA-MB-231 soluble lysate
# T2 sequence (P02545 1-664): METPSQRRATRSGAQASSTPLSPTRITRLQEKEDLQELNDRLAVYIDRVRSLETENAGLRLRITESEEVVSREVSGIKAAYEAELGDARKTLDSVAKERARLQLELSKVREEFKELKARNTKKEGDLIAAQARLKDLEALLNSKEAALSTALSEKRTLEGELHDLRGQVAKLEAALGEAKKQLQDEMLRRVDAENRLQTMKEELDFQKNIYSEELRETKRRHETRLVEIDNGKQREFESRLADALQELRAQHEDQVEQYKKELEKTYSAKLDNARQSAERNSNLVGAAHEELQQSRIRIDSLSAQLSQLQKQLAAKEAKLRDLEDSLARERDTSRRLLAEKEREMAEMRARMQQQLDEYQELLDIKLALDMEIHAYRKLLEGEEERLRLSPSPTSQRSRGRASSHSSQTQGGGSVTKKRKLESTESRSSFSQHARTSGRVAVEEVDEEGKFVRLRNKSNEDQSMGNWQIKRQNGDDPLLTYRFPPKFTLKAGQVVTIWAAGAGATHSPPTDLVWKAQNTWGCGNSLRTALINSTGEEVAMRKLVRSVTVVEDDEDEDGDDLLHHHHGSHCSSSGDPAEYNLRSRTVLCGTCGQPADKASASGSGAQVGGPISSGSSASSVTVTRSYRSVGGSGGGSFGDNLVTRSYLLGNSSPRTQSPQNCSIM
# Procedure, shortened: as §1
# [3] = biological target: T3, UCHL5 Ubiquitin carboxyl-terminal hydrolase isozyme L5 (Homo sapiens, UniProt Q9Y5K5)
# T3 construct: endogenous in cells; host or cells: MDA-MB-231 (soluble fraction of lysate)
# T3 sequence (Q9Y5K5 1-329): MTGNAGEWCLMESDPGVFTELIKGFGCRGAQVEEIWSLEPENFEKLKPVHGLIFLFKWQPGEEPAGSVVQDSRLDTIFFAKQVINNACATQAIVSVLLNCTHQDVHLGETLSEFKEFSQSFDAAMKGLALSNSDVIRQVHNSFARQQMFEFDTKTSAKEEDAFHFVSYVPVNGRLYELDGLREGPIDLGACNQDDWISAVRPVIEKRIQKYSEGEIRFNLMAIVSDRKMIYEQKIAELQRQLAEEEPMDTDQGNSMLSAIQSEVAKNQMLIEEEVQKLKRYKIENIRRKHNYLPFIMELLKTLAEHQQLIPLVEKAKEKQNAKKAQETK
# Procedure, shortened: as §1
# [4] = biological target: T4, ERAP1 Endoplasmic reticulum aminopeptidase 1 (Homo sapiens, UniProt Q9NZ08)
# T4 construct: endogenous in cells; host or cells: MDA-MB-231 lysate
# Procedure, shortened: as §1
# T1 sequence (Q14CX7 whole entry): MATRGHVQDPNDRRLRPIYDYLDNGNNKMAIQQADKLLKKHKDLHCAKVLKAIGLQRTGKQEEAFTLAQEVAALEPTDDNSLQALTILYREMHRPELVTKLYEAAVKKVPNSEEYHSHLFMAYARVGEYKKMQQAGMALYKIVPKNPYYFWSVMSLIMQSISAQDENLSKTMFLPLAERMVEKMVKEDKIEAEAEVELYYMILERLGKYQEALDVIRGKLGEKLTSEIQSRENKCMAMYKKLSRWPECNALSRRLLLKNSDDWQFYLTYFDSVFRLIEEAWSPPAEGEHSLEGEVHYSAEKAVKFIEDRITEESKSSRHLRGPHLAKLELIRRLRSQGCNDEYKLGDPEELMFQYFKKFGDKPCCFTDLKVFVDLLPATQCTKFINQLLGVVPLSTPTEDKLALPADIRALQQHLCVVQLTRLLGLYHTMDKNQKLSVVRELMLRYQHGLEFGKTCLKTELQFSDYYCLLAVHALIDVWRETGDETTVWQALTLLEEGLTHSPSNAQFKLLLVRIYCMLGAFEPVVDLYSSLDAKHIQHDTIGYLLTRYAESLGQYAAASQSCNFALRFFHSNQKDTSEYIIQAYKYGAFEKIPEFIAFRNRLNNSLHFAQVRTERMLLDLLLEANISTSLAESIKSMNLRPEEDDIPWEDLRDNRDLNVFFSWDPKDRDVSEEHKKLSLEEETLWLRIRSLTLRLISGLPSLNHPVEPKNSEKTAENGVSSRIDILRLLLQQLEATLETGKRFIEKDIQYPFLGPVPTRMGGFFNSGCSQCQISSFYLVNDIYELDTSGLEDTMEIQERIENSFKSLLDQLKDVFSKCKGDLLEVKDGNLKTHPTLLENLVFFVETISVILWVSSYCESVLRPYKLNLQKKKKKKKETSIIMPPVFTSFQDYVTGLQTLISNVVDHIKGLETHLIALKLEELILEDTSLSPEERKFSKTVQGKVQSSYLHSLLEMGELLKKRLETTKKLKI
# T4 sequence (Q9NZ08 whole entry): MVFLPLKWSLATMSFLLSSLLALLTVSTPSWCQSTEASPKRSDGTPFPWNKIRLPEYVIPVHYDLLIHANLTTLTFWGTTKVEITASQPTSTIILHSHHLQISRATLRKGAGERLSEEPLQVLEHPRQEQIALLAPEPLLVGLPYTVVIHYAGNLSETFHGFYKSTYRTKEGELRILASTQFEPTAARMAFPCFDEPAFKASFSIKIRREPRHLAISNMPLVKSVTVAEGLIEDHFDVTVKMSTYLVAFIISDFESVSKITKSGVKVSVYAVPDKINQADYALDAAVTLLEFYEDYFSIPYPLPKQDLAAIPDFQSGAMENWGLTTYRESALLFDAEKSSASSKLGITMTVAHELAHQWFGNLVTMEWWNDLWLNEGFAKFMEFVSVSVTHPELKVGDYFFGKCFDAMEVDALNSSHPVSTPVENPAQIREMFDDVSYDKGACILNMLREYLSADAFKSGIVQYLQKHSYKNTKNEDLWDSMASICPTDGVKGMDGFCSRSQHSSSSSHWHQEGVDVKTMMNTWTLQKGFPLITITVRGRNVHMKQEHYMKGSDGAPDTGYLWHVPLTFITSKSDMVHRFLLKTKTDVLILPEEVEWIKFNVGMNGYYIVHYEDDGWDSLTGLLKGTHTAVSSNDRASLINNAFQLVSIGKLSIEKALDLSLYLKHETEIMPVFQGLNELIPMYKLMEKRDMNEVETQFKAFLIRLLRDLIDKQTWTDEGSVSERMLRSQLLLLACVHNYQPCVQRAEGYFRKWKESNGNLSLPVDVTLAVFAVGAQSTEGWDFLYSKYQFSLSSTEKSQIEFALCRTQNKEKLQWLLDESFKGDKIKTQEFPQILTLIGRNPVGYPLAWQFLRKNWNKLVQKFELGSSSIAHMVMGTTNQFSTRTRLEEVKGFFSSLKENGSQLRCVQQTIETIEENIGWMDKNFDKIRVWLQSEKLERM
structure (smiles),measurement,setting,value
"O=C(Oc1ccc([N+](=O)[O-])cc1[N+](=O)[O-])c1ccc(Oc2ccccc2)cc1 [fragment 39, 2,4-Dinitrophenyl 4-phenoxybenzoate]",isoTOP-ABPP ratio (R) at liganded lysine Q14CX7_K575,[1],1.0
same,isoTOP-ABPP ratio (R) at liganded lysine P02545_K135,[2],1.0
same,isoTOP-ABPP ratio (R) at liganded lysine Q9Y5K5_K323,[3],0.9
same,isoTOP-ABPP ratio (R) at liganded lysine Q9NZ08_K685,[4],1.0

# From patent publication US20210255193A1, “LYSINE REACTIVE PROBES AND USES THEREOF” (The Scripps Research Institute, priority 2017, published 2021)
